Several values for one entry are separate records, joined by “and”; a condition that tells them apart may be missing. Equal values may be shown once. Entries after “also recorded” stand apart in the source; their conditions may differ. Read-outs that look alike come from different tables or passages of the source. Marks after values point to notes of the source that are not given here. Residues, ends and D or L forms follow the SMILES beside them. *: point of attachment. Cbz = O=C(OCc1ccccc1)*
Assays:
[1] = tested on: SET Ribosome
[2] = tested on: SET Ribosome; test: TPA Reference Standard Response Modifier Assay with ribosome binding translation inhibitors, HEK293 hTRdm-fLUC#13; type: cell-based, human; details: with 100 nM TPA; 6 hours
[3] = tested on: HCT116 hTRdm-fLUC#32 tumors; details: for Tumor Regression during Treatment, Average / Tumor Regression during Treatment, Mean: oral daily 18 days, Cape 500 mg/kg/day, anisomycin L 0.000027, H 0.000054 mg/kg/day
[4] = in vivo, cited from earlier work
[5] = tested on: HCT116 hTRdm-fLUC#32 tumors; details: for Tumor Regression during Treatment, Average / Tumor Regression during Treatment, Mean: oral daily 10 days, Cape 400 mg/kg/day
[6] = tested on: SET Ribosome; test: Cobalt chloride Dose-dependent Modifier Assay, HEK293 mTRdm-fLUC#12; type: cell-based, human; details: 6 hours
[7] = tested on: SET Ribosome; test: TR SET Assay (TPA Reference Standard) on HCT116 TR Cell Panel before and after nonadherent tumorsphere growth; type: cell-based, human; parameters: concentration or dose not given beside the values; details: for SET Activity (day 0): TPA Reference Standard; for SET Activity (post-growth): TPA, after 32 days tumorsphere growth and 14 days replating
[8] = tested on: SET Ribosome; test: CremophorEL Cell Count Dose Response Assay, HEK293 TR cell lines; type: cell-based, human; details: HEK293 mTRdm-fLUC#12; 100 nM TPA
[9] = tested on: SET Ribosome; test: Rapamycin dose response and TPA+Taxol Modifier Assay, MCF7 TR Cell Panel
Description: To tease apart the growth and stress responses, cells were treated with varying doses of rapamycin, incubated at 37° C. for 6 hours, and assayed for fLuc activity.
In other studies, the effects of different rapamycin concentrations were measured in combination with the TPA+Taxol Reference Standard response in the MCF7 derived cell lines that express the fLuc reporter either constitutively (CMV lines) or as a part of the TR Expression Cassette (hTR and mTR lines). […] Cells were treated with 100 nM TPA, 500 nM paclitaxel, and varying concentrations of rapamycin, incubated at 37° C. for 6 hours, and assayed for fLuc activity.
Select members of the MCF7 TR Cell Panel were plated into 96-well microtiter plates and processed as described for a Cell Count Dose-dependent Modifier protocol. Rapamycin concentrations were tested for an ability to alter the Reference Standard responses produced by a 100 nM TPA/500 nM paclitaxel combination. Rapamycin was applied at doses ranging from 1 nM to 1 μM concentrations. All dilutions were prepared in complete growth media. Cells were incubated for 6 hrs, processed, and assayed for luciferase activity as described.

[10] = tested on: HCT116 hTRdm-fLUC#32 tumors; type: in vivo, nude mice; details: cremophorEL 0.5 mg/kg/day Q2Dx5; cyclophosphamide 120 mg/kg/day Q4Dx3; IV
[11] = tested on: SET Ribosome; type: in vivo, nude mice; details: individual animals; for % Induction: post- vs pre-treatment
[12] = single listed concentration: dbcAMP 5 mM, TPA 100 nM, Paclitaxel 500 nM, MG132 50 uM, Colchicine 1 uM, MRA 150 nM, Bortezomib 50 nM
[13] = MCF7 TR Class 3/4 lines, 100 nM TPA + 500 nM paclitaxel, 6 hours

## COc1cc2c(c(OC)c1OC)-c1ccc(OC)c(=O)cc1[C@@H](NC(C)=O)CC2 [Colchicine, N-[(7S)-1,2,3,10-tetramethoxy-9-oxo-5,6,7,9-tetrahydrobenzo[a]heptalen-7-yl]acetamide]
[1]
  SET Response: Agonist

## COc1ccc(C[C@H](N)C(=O)N[C@H]2[C@@H](O)[C@H](n3cnc4c(N(C)C)ncnc43)O[C@@H]2CO)cc1 [puromycin]
[2]
  IC100 (100% SET Ribosome inhibition): > 25 µM

## CCCCCOC(=O)Nc1nc(=O)n([C@@H]2O[C@H](C)[C@@H](O)[C@H]2O)cc1F [capecitabine, pentyl [1-(3,4-dihydroxy-5-methyltetrahydrifuran-2-yl)-5-fluoro-2-oxo-1H-pyrimidine-4-yl]carbamate]
[3]; mouse, in vivo
  Animal weight averages, day 7: 20.88 g
  Animal weight averages, day 10: 20.88 g
  Animal weight averages, day 13: 20.36 g
  Animal weight averages, day 15: 19.38 g
  Animal weight averages, day 18: 18.50 g
  Animal weight averages, day 24: 19.56 g
  Animal weight averages, day 31: 21.17 g
  Animal weight averages, day 35: 22.32 g
  Animal weight averages, day 38: 22.99 g
  spontaneous death: one
  survival mean: 24 days
[3]
  Tumor Regression during Treatment, Average: 53.2%
  Tumor Regression during Treatment, Mean: 56%
[3]; listed as Cape
  Tumor Regression during Treatment, Average: 53.2%
  Tumor Regression during Treatment, Mean: 56.0%
[4]; iv
  time of maximal metabolite concentration in the plasma: 2 to 3 h
[5]; Example 3 text on FIG. 16
  survival mean: 47 days
[5]; Kaplan-Meier, FIG. 16 description
  sacrifice mean: 47 days
[5]
  Tumor Regression during Treatment, Average: 35.2%
  Tumor Regression during Treatment, Mean: 35.2%
[5]; listed as Cape
  Tumor Regression during Treatment, Average: 29.4%
  Tumor Regression during Treatment, Mean: 35.2%

## [Cl-].[Cl-].[Co+2] [cobalt(II) chloride]
[6]; cobalt applied alone
  doses repressing background SET Ribosome activity: > 50 µM
[6]; with 100 nM TPA
  doses inhibiting TPA SET activation: > 200 µM
[6]; with 100 nM TPA, listed as CoCl2
  doses inhibiting TPA SET activation: ≥ 200 µM
[6]; with 100 nM TPA, read-out: IC50, inhibition of SET activity in cells treated with TPA
  IC50: ~1000 µM
[6]; with paclitaxel Reference Standard
  doses inhibiting SET Ribosome activation by paclitaxel (Taxol): > 50 µM
[6]; with paclitaxel Reference Standard, listed as CoCl2
  doses inhibiting SET Ribosome activation by paclitaxel (Taxol): ≥ 50 µM
[6]; with paclitaxel Reference Standard, read-out: IC50, inhibition of SET Ribosome activation by paclitaxel
  IC50: ~200 µM

## CCCCCCCCCCCCCC(=O)O[C@@H]1[C@@H](C)[C@@]2(O)[C@@H](C=C(CO)C[C@]3(O)C(=O)C(C)=C[C@@H]23)[C@@H]2C(C)(C)[C@]12OC(C)=O [TPA, 12-O-tetradecanoylphorbol-13-acetate]
[7]; HCT116 mTRdm-fLUC#17
  SET Activity (day 0): 226.3%
  SET Activity (post-growth): 366.0%
[7]; HCT116 mTRdm-fLUC#25
  SET Activity (day 0): 336.6%
  SET Activity (post-growth): 26,675.6%
[7]; HCT116 mTRdm-fLUC#28
  SET Activity (day 0): 1,365.5%
  SET Activity (post-growth): 20,492.8%
[7]; HCT116 mTRdm-fLUC#36
  SET Activity (day 0): 875.3%
  SET Activity (post-growth): 3,926.9%
[7]; HCT116 mTRdm-fLUC#47
  SET Activity (day 0): 237.5%
  SET Activity (post-growth): 1,434.3%
[7]; HCT116 mTRdm-fLUC#49
  SET Activity (day 0): 329.4%
  SET Activity (post-growth): 2,015.4%
[7]; HCT116 mTRdm-fLUC#52
  SET Activity (day 0): 261.1%
  SET Activity (post-growth): 920.0%
[7]; HCT116 mTRdm-fLUC#58
  SET Activity (day 0): 324.4%
  SET Activity (post-growth): 636.6%
[7]; HCT116 mTRdm-fLUC#75
  SET Activity (day 0): 693.1%
  SET Activity (post-growth): 19,413.0%
[7]; HCT116 mTRdm-fLUC#139
  SET Activity (day 0): 114.8%
  SET Activity (post-growth): 311.9%
[7]; HCT116 mTRdm-fLUC#156
  SET Activity (day 0): 462.3%
  SET Activity (post-growth): 3,673.3%
[7]; HCT116 mTRdm-fLUC#190
  SET Activity (day 0): 204.4%
  SET Activity (post-growth): 178.3%
[7]; HCT116 mTRdm-fLUC#220
  SET Activity (day 0): 115.5%
  SET Activity (post-growth): 81.8%
[8]
  SET increase: > 2000%
[1]
  SET Response: Agonist

## C[C@@H]1C[C@@H]([C@H](O)CC2CC(=O)NC(=O)C2)C(=O)[C@@H](C)C1 [cycloheximide]
[2]
  IC100 (100% SET Ribosome inhibition): > 10 µM

## CC(=O)O[C@H]1C(=O)[C@@]2(C)[C@H]([C@H](OC(=O)c3ccccc3)[C@]3(O)C[C@H](OC(=O)[C@H](O)[C@@H](NC(=O)c4ccccc4)c4ccccc4)C(C)=C1C3(C)C)[C@]1(OC(C)=O)CO[C@@H]1C[C@@H]2O [Paclitaxel, 5β,20-epoxy-1,2α,4,7β,10β,13α-hexahydroxytax-1-1-en-9-14,10-diacetate 2-benzoate 13-ester with (2R,3S)-N-benzoyl-3-phenylisoserine]
[1]; [12]
  SET Response: Agonist

## CO[C@H]1C[C@@H]2CC[C@@H](C)[C@@](O)(O2)C(=O)C(=O)N2CCCC[C@H]2C(=O)O[C@H]([C@H](C)C[C@@H]2CC[C@@H](O)[C@H](OC)C2)CC(=O)[C@H](C)/C=C(\C)[C@@H](O)[C@@H](OC)C(=O)[C@H](C)C[C@H](C)/C=C/C=C/C=C/1C [rapamycin]
[9]; [13]
  concentrations giving SET decline in TPA+Taxol treated samples: ≥ 100 nM
  dose up to which SET of TPA+Taxol treated samples is super-induced: ≤ 50 nM
[9]; MCF7 TR Class 3/4 lines, rapamycin alone, 6 hours
  dose giving a spike in fLuc activity: 50 nM
[9]; MCF7 cells, 6 hrs
  doses at which the magnitude of SET is reduced but not eliminated: > 50 nM

## CC(C)C[C@@H](C=O)NC(=O)[C@H](CC(C)C)NC(=O)[C@H](CC(C)C)NC(=O)OCc1ccccc1 [MG132, Z-Leu-Leu-Leu-aldehyde] (Cbz-Leu-Leu-Leu-aldehyde)
[1]
  SET Response: Antagonist/; also recorded: Agonist

## CNc1ccc2oc(C[C@H]3O[C@@]4(CC[C@H]3C)O[C@H]([C@H](C)C(=O)c3ccc[nH]3)[C@H](C)C[C@H]4C)nc2c1C(=O)O [Calon, Calcimycin]
[1]
  SET Response: Antagonist; also recorded: Agonist

## O=P1(N(CCCl)CCCl)NCCCO1 (centres unmarked) [Cyclophosphamide, RS-N,N-bis(2-chloroethyl)-1,3,2-oxazaphosphinan-2-amine 2-oxide]
[4]; po
  elimination half-life: 3 to 12 h
  oral bioavailability: > 75%
[4]
  dose excreted in the urine as unchanged drug: 5-25%
[10]
  effect on tumor growth: slowed tumor growth
[11]; IV, CremophorEL 0.5 mg/kg, paclitaxel 20 mg/kg, cyclophosphamide 120 mg/kg, average tumor size 125 mg
  6 hr Post-treatment Value (bioluminescence signal intensity): 38.6 ×10e6 photons and 50.4 ×10e6 photons and 101.0 ×10e6 photons and 39.3 ×10e6 photons and 82.5 ×10e6 photons and 56.8 ×10e6 photons
[11]; average tumor size 500 mg
  6 hr Post-treatment Value (bioluminescence signal intensity): 75.0 ×10e6 photons and 81.5 ×10e6 photons and 48.8 ×10e6 photons
  % Induction: 204.9% and 368.8% and 109.7%
[11]; average tumor size 125 mg
  % Induction: 12,866.7% *** and 381.8% and 167.2% and 13,100.0% *** and 373.3% and 18,933.3% ***

## polyoxyl 35 castor oil [cremophorEL]
[3]; mouse, in vivo
  Animal weight averages, day 7: 22.25 g
  Animal weight averages, day 10: 22.39 g
  Animal weight averages, day 13: 22.23 g
  Animal weight averages, day 15: 21.60 g
  Animal weight averages, day 18: 21.93 g
  Animal weight averages, day 24: 21.59 g
  Animal weight averages, day 31: 20.22 g

## CC(C)C[C@H](NC(=O)[C@H](Cc1ccccc1)NC(=O)c1cnccn1)B(O)O [Bortezomib (Velcade), [(1R)-3-methyl-1-[[(2S)-1-oxo-3-phenyl-2-[(pyrazinylcarbonyl)amino]propyl]amino]butyl] boronic acid]
[1]; [12]
  SET Response: Antagonist/; also recorded: Agonist
